Test results from US20210032674A1, “METHOD FOR DETERMINING MICROORGANISM CONCENTRATION” (priority 2018, published 2021).
Values after ≈ are worked out from the molar mass of the structure shown.

Test system: clinical isolate of Klebsiella pneumoniae
Test: Antibiotic susceptibility test (AST), MIC calling by automated microscopy imaging of microbial biomass in a 336-well AST-disc
Assay type: cell-based
Conditions: K. pneumoniae recovered from spiked positive blood culture flask, adjusted to 5x10^5 CFU/ml in CAMBH, 35° C., up to 5.5 hours total AST time; for MIC: Klebsiella pneumoniae, 5.5 h
Experimental: Clinical isolates grown on agar plate were individually suspended in PBS and adjusted to 0.5 McFarland. A 1:100 dilution of this was added together with 9 ml of blood from a healthy donor to a blood culture flask (BD Bactec Plus Aerob) and incubated in a blood culture cabinet overnight. In the morning, after the BCF had turned positive a 500 μl aliquot of the positive BCF were used for the subsequent analysis.
The value of the concentration determination was compared to a pre-determined standard curve and the concentration of microorganisms in the recovered suspension was automatically adjusted to the desired concentration (5×10^5 CFU/ml). For this experiment an aliquot of the concentration adjusted bacteria were plated on an agar plate to determine viable cell count to provide a control measure for the process.
The concentration adjusted sample in CAMBH was added using an automated pipette via central access ports to a 336-well AST-disc pre-filled with dried antibiotics in various concentrations.
Each well contain 20 μl of sample and is incubated at 35° C. An initial reading was taken after 30 minutes (reading 0). Subsequent readings (readings 1-6) were taken every hour up to 5.5 hours total AST time by imaging by automated microscopy.
MIC antibiotic concentrations (measured in mg/I) were determined for a range of antibiotics. Each antibiotic were present in triplicates in the AST-consumable in this experiment.

| Molecule | MIC values (replicate #1) | MIC values (replicate #2) | MIC values (replicate #3) | MIC (replicate #1) [mg/L] | MIC (replicate #2) [mg/L] | MIC (replicate #3) [mg/L] |
| --- | --- | --- | --- | --- | --- | --- |
| Trimethoprim/Sulfamethoxasole | >16 mg/I | >16 mg/I | >16 mg/I |  |  |  |
| C[C@H]1COc2c(N3CCN(C)CC3)c(F)cc3c(=O)c(C(=O)O)cn1c23 [Levofloxacin] |  |  |  | 0.5 (≈ 1.38 µM) | 0.5 (≈ 1.38 µM) | 0.5 (≈ 1.38 µM) |
| CO/N=C(\C(=O)N[C@@H]1C(=O)N2C(C(=O)O)=C(COC(C)=O)CS[C@H]12)c1csc(N)n1 [Cefotaxime] |  |  |  | > 8 | > 8 | > 8 |
| NCC[C@H](O)C(=O)N[C@@H]1C[C@H](N)[C@@H](O[C@H]2O[C@H](CN)[C@@H](O)[C@H](O)[C@H]2O)[C@H](O)[C@H]1O[C@H]1O[C@H](CO)[C@@H](O)[C@H](N)[C@H]1O [Amikacin] |  |  |  | 1 (≈ 1.71 µM) | 2 (≈ 3.42 µM) | 1 (≈ 1.71 µM) |
| ceftazidime-avibactam | 16 mg/I | 32 mg/I | 32 mg/I |  |  |  |
| CC(C)(O/N=C(\C(=O)N[C@@H]1C(=O)N2C(C(=O)[O-])=C(C[n+]3ccccc3)CS[C@H]12)c1csc(N)n1)C(=O)O [Ceftazidime] |  |  |  | ≤ 0.125 | ≤ 0.125 | ≤ 0.125 |
| Amoxicillin/clavulanic acid | 8 mg/I | 16 mg/I | 16 mg/I |  |  |  |
| C[C@@H](O)[C@H]1C(=O)N2C(C(=O)O)=C(S[C@@H]3CN[C@H](C(=O)Nc4cccc(C(=O)O)c4)C3)[C@H](C)[C@H]12 [Ertapenem] |  |  |  | ≤ 0.0156 | 0.0312 (≈ 0.0657 µM) | ≤ 0.0156 |
| C[C@@H](O)[C@H]1C(=O)N2C(C(=O)O)=C(SCCN=CN)C[C@H]12 [Imipinem] | <=0.5 mg/I | <=0.5 mg/I | <=0.5 mg/I |  |  |  |
| CO[C@@]1(NC(=O)Cc2cccs2)C(=O)N2C(C(=O)O)=C(COC(N)=O)CS[C@@H]21 [Cefoxitine] |  |  |  | 2 (≈ 4.68 µM) | 4 (≈ 9.36 µM) | 2 (≈ 4.68 µM) |
| CO/N=C(\C(=O)N[C@@H]1C(=O)N2C(C(=O)O)=C(CSc3nc(=O)c(=O)[nH]n3C)CS[C@H]12)c1csc(N)n1 [Ceftriaxone] |  |  |  | > 8 | > 8 | > 8 |
| Colistin | 0.5 mg/I | 1 mg/I | 1 mg/I |  |  |  |
| Piperacillin/Tazobactam | 4 mg/I | 4 mg/I | 4 mg/I |  |  |  |
| C[C@@H](O)[C@H]1C(=O)N2C(C(=O)O)=C(S[C@@H]3CN[C@H](C(=O)N(C)C)C3)[C@H](C)[C@H]12 [Meropenem] |  |  |  | ≤ 0.0625 | ≤ 0.0625 | ≤ 0.0625 |
| NC[C@H]1O[C@H](O[C@H]2[C@H](O)[C@@H](O[C@H]3O[C@H](CO)[C@@H](O)[C@H](N)[C@H]3O)[C@H](N)C[C@@H]2N)[C@H](N)C[C@@H]1O [Tobramycin] |  |  |  | 2 (≈ 4.28 µM) | 2 (≈ 4.28 µM) | 2 (≈ 4.28 µM) |
| CN(C)c1cc(NC(=O)CNC(C)(C)C)c(O)c2c1C[C@H]1C[C@H]3[C@H](N(C)C)C(O)=C(C(N)=O)C(=O)[C@@]3(O)C(O)=C1C2=O [Tigecyclin] | 0.5 mg/I | 0.5 mg/I | 0.5 mg/I |  |  |  |
| Ceftolozane-tazobactam | 0.25 mg/I | 0.25 mg/I | 0.25 mg/I |  |  |  |
| Gentamicin | 0.5 mg/I | 0.5 mg/I | 0.5 mg/I |  |  |  |
